The values below are quoted from earlier work in US20220071932A1, “Compositions and Methods Against Stress-Induced Affective Disorders and Their Associated Symptoms” (The Trustees of Columbia University in the City of New York, priority 2019, published 2022).

The subject of this data set is depressive symptoms in patients. Particulars: patients diagnosed with MDD; cited from earlier work.

Consider `CC12CC3CC(C)(C1)CC(N)(C3)C2` [memantine], for which the “reduction of depressive symptoms” value was “does not reduce depressive symptoms”.
